From PubChem BioAssay AID1918942 (Molecular Pharmacology Branch, DTP, NCI, 2023)

System: 743489-274-T-PDC complex spheroid viability
Assay: Anticancer human tumor 743489-274-T-PDC patient-derived renal cell carcinoma cell line growth inhibition
Conditions: for IC50: curve of first compound; for viability, T/C: stronger effect = lower value
In short: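 Multicellular complex spheroids of tumor cells with human endothelial cells (HUVEC) and mesenchymal stem cells; the LSD1 inhibitor iadademstat was combined with standard-of-care or investigational agents. Top concentration at or near clinical Cmax, half-log dilutions; final DMSO ≤0.25%.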

[1] = second compound 0.1 µM, first compound 0.0316 µM
[2] = second compound 0.1 µM, first compound 0.1 µM
[3] = second compound 0.1 µM, first compound 0.316 µM
[4] = second compound 0.1 µM, first compound 1 µM
[5] = second compound 0.1 µM, first compound 3.16 µM
[6] = second compound 0.1 µM, first compound 10 µM
[7] = second compound 0.316 µM, first compound 0.0316 µM
[8] = second compound 0.316 µM, first compound 0.1 µM
[9] = second compound 0.316 µM, first compound 0.316 µM
[10] = second compound 0.316 µM, first compound 1 µM
[11] = second compound 0.316 µM, first compound 3.16 µM
[12] = second compound 0.316 µM, first compound 10 µM
[13] = second compound 1 µM, first compound 0.0316 µM
[14] = second compound 1 µM, first compound 0.1 µM
[15] = second compound 1 µM, first compound 0.316 µM
[16] = second compound 1 µM, first compound 1 µM
[17] = second compound 1 µM, first compound 3.16 µM
[18] = second compound 1 µM, first compound 10 µM
[19] = second compound 3.16 µM, first compound 0.0316 µM
[20] = second compound 3.16 µM, first compound 0.1 µM
[21] = second compound 3.16 µM, first compound 0.316 µM
[22] = second compound 3.16 µM, first compound 1 µM
[23] = second compound 3.16 µM, first compound 3.16 µM
[24] = second compound 3.16 µM, first compound 10 µM
[25] = second compound 10 µM, first compound 0.0316 µM
[26] = second compound 10 µM, first compound 0.1 µM
[27] = second compound 10 µM, first compound 0.316 µM
[28] = second compound 10 µM, first compound 1 µM
[29] = second compound 10 µM, first compound 3.16 µM
[30] = second compound 10 µM, first compound 10 µM
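Further: spheroids exposed to compounds for 7 days before readout.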
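Wherever viability, T/C is given: 100% = DMSO vehicle control wells.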

| SMILES | IC50 (second compound 0.1 µM) [nM] | IC50 (second compound 0.316 µM) [nM] | IC50 (second compound 1 µM) [nM] | IC50 (second compound 3.16 µM) [nM] | IC50 (second compound 10 µM) [nM] | viability, T/C [1] [%] | viability, T/C [2] [%] | viability, T/C [3] [%] | viability, T/C [4] [%] | viability, T/C [7] [%] | viability, T/C [8] [%] | viability, T/C [9] [%] | viability, T/C [10] [%] | viability, T/C [13] [%] | viability, T/C [14] [%] | viability, T/C [15] [%] | viability, T/C [16] [%] | viability, T/C [19] [%] | viability, T/C [20] [%] | viability, T/C [21] [%] | further results |
| --- | --- | --- | --- | --- | --- | --- | --- | --- | --- | --- | --- | --- | --- | --- | --- | --- | --- | --- | --- | --- | --- |
| CC(C)c1c(-c2ccccc2)nc2c(C#N)c[nH]n2c1=O + NC1CCC(NC2CC2c2ccccc2)CC1 | > 10000 | > 10000 | > 10000 | > 10000 | > 10000 | 97.2 | 115 | 104 | 127 | 106 | 99.3 | 126 | 108 | 119 | 120 | 100 | 111 | 111 | 111 | 114 | viability, T/C [5]: 99.9%; viability, T/C [6]: 104%; viability, T/C [11]: 108%; viability, T/C [12]: 104%; viability, T/C [17]: 105%; viability, T/C [18]: 114%; viability, T/C [22]: 119%; viability, T/C [23]: 98.8%; viability, T/C [24]: 112%; viability, T/C [25]: 118%; viability, T/C [26]: 121%; viability, T/C [27]: 130%; viability, T/C [28]: 121%; viability, T/C [29]: 120%; viability, T/C [30]: 104% |
| CC1COCCN1c1cc(-c2ccnn2C)c2ccnc(-c3ccn[nH]3)c2n1 (stereo not given) + NC1CCC(NC2CC2c2ccccc2)CC1 | > 1000 | > 1000 | > 1000 | > 1000 | > 1000 | 107 | 92.6 | 81.6 | 64 | 114 | 87.1 | 83 | 62.7 | 118 | 98 | 90.2 | 59.5 | 110 | 101 | 84.5 | viability, T/C (second compound 0.1 µM, first compound 0.00316 µM): 111%; viability, T/C (second compound 0.1 µM, first compound 0.01 µM): 109%; viability, T/C (second compound 0.316 µM, first compound 0.00316 µM): 126%; viability, T/C (second compound 0.316 µM, first compound 0.01 µM): 110%; viability, T/C (second compound 1 µM, first compound 0.00316 µM): 109%; viability, T/C (second compound 1 µM, first compound 0.01 µM): 128%; viability, T/C (second compound 3.16 µM, first compound 0.00316 µM): 122%; viability, T/C (second compound 3.16 µM, first compound 0.01 µM): 138%; viability, T/C [22]: 76.1%; viability, T/C (second compound 10 µM, first compound 0.00316 µM): 131%; viability, T/C (second compound 10 µM, first compound 0.01 µM): 117%; viability, T/C [25]: 129%; viability, T/C [26]: 105%; viability, T/C [27]: 88.9%; viability, T/C [28]: 71.7% |
| COc1ccc([C@@H](O)c2cc(-c3ncnc4cc(N5CCOCC5)ccc34)c(F)cc2Cl)nn1 + NC1CCC(NC2CC2c2ccccc2)CC1 | 2810 | 2310 | 1670 | 1850 | 1900 | 110 | 109 | 87.2 | 70.9 | 125 | 121 | 99 | 65.9 | 125 | 112 | 101 | 61.6 | 124 | 123 | 92.9 | viability, T/C [5]: 47.1%; viability, T/C [6]: 34.9%; viability, T/C [11]: 46.9%; viability, T/C [12]: 18.6%; viability, T/C [17]: 34.1%; viability, T/C [18]: 19.4%; viability, T/C [22]: 62.2%; viability, T/C [23]: 41.6%; viability, T/C [24]: 17%; viability, T/C [25]: 117%; viability, T/C [26]: 120%; viability, T/C [27]: 102%; viability, T/C [28]: 66.1%; viability, T/C [29]: 38.2%; viability, T/C [30]: 26.4% |
